{"source": "patent US10238713B2", "about": "“Cyclic tetrapeptides and therapeutic applications thereof” (LODZ UNIVERSITY OF TECHNOLOGY, priority 2010, dated 2019)", "system": "mice, carrageenan-induced foot pad edema", "assay": "Carrageenan-induced foot-pad edema test", "format": "in vivo, mouse", "settings": "4 h after carrageenan; peptides 250 μg i.p., DEX 25 μg i.p., 30 min before; FIGS. 17A-17C", "summary_of_the_method": "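Mice received peptide 250 μg i.p. (DMSO/0.9% NaCl vehicle) 30 min before intradermal injection of 50 μl 2% carrageenan into the hind foot pad; dexamethasone 25 μg i.p. as reference. Foot-pad thickness measured by spring caliper at 2, 3 and 4 h; mean increase in mm ±SE, 5 mice/group.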", "note": "Non-standard residues stand in square brackets, D forms with d. Residues, ends and D or L forms follow the SMILES beside them. β3hF = N[C@H](CC(=O)O)Cc1ccccc1"}
{"smiles": "O=C1C[C@H](Cc2ccccc2)NC(=O)[C@@H]2CCCN2C(=O)[C@@H]2CCCN2C(=O)[C@H](Cc2ccccc2)N1", "note": "[I-A] (cyclo(FPP[β3hF]))", "values": [{"measurement": "foot pad edema (increase of foot pad thickness), P vs Control", "result": 0.0001}]}
